# Measurements taken from ChEMBL document CHEMBL1201862, “PubChem BioAssay data set” (2004).
#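 48-hour exposure; five concentrations; linearly interpolated endpoints. Here, GI50 denotes the concentration required for 50% inhibition of growth.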 Active and inactive are the calls of the source. No stated cut-off is given here; in the data, active = GI50 up to about 1.1 µM and inactive = higher.
# Legend:
# Test in all cases: NCI tumour cell line growth inhibition, 48 h
# LOX IMVI = system: LOX IMVI
# NCI-H226 = system: NCI-H226
# SF-295 = system: SF-295
# MCF7 = system: MCF7
# HOP-62 = system: HOP-62
# PC-3 = system: PC-3
# HOP-92 = system: HOP-92
# A549 = system: A549
# COLO 205 = system: COLO 205
# NCI-H23 = system: NCI-H23
# MDA-MB-435 = system: MDA-MB-435
# UACC-257 = system: UACC-257
# RPMI-8226 = system: RPMI-8226
# HL-60 = system: HL-60
# SNB-75 = system: SNB-75
# SK-MEL-5 = system: SK-MEL-5
# NCI-H460 = system: NCI-H460
# SF-539 = system: SF-539
# 786-0 = system: 786-0
# MDA-MB-231 = system: MDA-MB-231
# SNB-19 = system: SNB-19
# DU-145 = system: DU-145
# OVCAR-3 = system: OVCAR-3
# EKVX = system: EKVX
# SN12C = system: SN12C
# SF-268 = system: SF-268
# BT-549 = system: BT-549
# UACC-62 = system: UACC-62
# HT-29 = system: HT-29
# HCT-116 = system: HCT-116
# OVCAR-4 = system: OVCAR-4
# SK-OV-3 = system: SK-OV-3
# CCRF-CEM = system: CCRF-CEM
# Hs-578T = system: Hs-578T
# K562 = system: K562
# IGROV-1 = system: IGROV-1
# MDA-N = system: MDA-N
# T47D = system: T47D
# UO-31 = system: UO-31
# SK-MEL-2 = system: SK-MEL-2
# CAKI-1 = system: CAKI-1
# MOLT-4 = system: MOLT-4
# OVCAR-5 = system: OVCAR-5
# HCT-15 = system: HCT-15
# HCC 2998 = system: HCC 2998
# TK-10 = system: TK-10
# ACHN = system: ACHN
# RXF 393 = system: RXF 393
# U-251 = system: U-251
# SK-MEL-28 = system: SK-MEL-28
# M14 = system: M14
# SW-620 = system: SW-620
# KM12 = system: KM12
# OVCAR-8 = system: OVCAR-8
# A498 = system: A498
# SR = system: SR
# NCI-H522 = system: NCI-H522
# Malme-3M = system: Malme-3M
# NCI/ADR-RES = system: NCI/ADR-RES
compound,measurement,setting,value
CCn1c(O)c(C(=O)NC(C)c2ccc([N+](=O)[O-])cc2)c(=O)n(CC)c1=S (stereo not given),GI50,LOX IMVI,2.31 µM (inactive)
same,GI50,NCI-H226,2.75 µM (inactive)
same,GI50,SF-295,1 µM (active)
same,GI50,MCF7,2.34 µM (inactive)
same,GI50,HOP-62,2.31 µM (inactive)
same,GI50,PC-3,0.773 µM (active)
same,GI50,HOP-92,2.75 µM (inactive)
same,GI50,A549,1.52 µM (inactive)
same,GI50,COLO 205,1.81 µM (inactive)
same,GI50,NCI-H23,1.77 µM (inactive)
same,GI50,MDA-MB-435,3.62 µM (inactive)
same,GI50,UACC-257,3.85 µM (inactive)
same,GI50,RPMI-8226,1.43 µM (inactive)
same,GI50,HL-60,2.28 µM (inactive)
same,GI50,SNB-75,2.16 µM (inactive)
same,GI50,SK-MEL-5,3.13 µM (inactive)
same,GI50,NCI-H460,2.41 µM (inactive)
same,GI50,SF-539,3.93 µM (inactive)
same,GI50,786-0,3.27 µM (inactive)
same,GI50,MDA-MB-231,2.91 µM (inactive)
same,GI50,SNB-19,1.93 µM (inactive)
same,GI50,DU-145,2.54 µM (inactive)
same,GI50,OVCAR-3,2.16 µM (inactive)
same,GI50,EKVX,3.23 µM (inactive)
same,GI50,SN12C,3.52 µM (inactive)
same,GI50,SF-268,3.92 µM (inactive)
same,GI50,BT-549,2.21 µM (inactive)
same,GI50,UACC-62,2.17 µM (inactive)
same,GI50,HT-29,2.34 µM (inactive)
same,GI50,HCT-116,1.64 µM (inactive)
same,GI50,OVCAR-4,1.48 µM (inactive)
same,GI50,SK-OV-3,3.09 µM (inactive)
same,GI50,CCRF-CEM,1.59 µM (inactive)
same,GI50,Hs-578T,2.52 µM (inactive)
same,GI50,K562,0.951 µM (active)
same,GI50,IGROV-1,2.75 µM (inactive)
same,GI50,MDA-N,3.59 µM (inactive)
same,GI50,T47D,3.33 µM (inactive)
same,GI50,UO-31,1.92 µM (inactive)
same,GI50,SK-MEL-2,1.02 µM (active)
same,GI50,CAKI-1,2.55 µM (inactive)
same,GI50,MOLT-4,2.05 µM (inactive)
same,GI50,OVCAR-5,2.23 µM (inactive)
same,GI50,HCT-15,2.58 µM
same,GI50,HCC 2998,3.29 µM (inactive)
same,GI50,TK-10,4.06 µM (inactive)
same,GI50,ACHN,3.1 µM (inactive)
same,GI50,RXF 393,3.11 µM (inactive)
same,GI50,U-251,1.84 µM (inactive)
same,GI50,SK-MEL-28,4.27 µM (inactive)
same,GI50,M14,2.6 µM (inactive)
same,GI50,SW-620,2.43 µM (inactive)
same,GI50,KM12,2.01 µM (inactive)
O=c1cc(O)c1=O,GI50,LOX IMVI,> 100 µM (inactive)
same,GI50,NCI-H226,> 100 µM (inactive)
same,GI50,SF-295,> 100 µM (inactive)
same,GI50,MCF7,> 100 µM (inactive)
same,GI50,HOP-62,> 100 µM (inactive)
same,GI50,PC-3,> 100 µM (inactive)
same,GI50,HOP-92,> 100 µM (inactive)
same,GI50,A549,> 100 µM (inactive)
same,GI50,COLO 205,> 100 µM (inactive)
same,GI50,NCI-H23,> 100 µM (inactive)
same,GI50,MDA-MB-435,> 100 µM (inactive)
same,GI50,UACC-257,> 100 µM (inactive)
same,GI50,RPMI-8226,> 100 µM (inactive)
same,GI50,HL-60,> 100 µM (inactive)
same,GI50,SNB-75,> 100 µM (inactive)
same,GI50,SK-MEL-5,> 100 µM (inactive)
same,GI50,NCI-H460,> 100 µM (inactive)
same,GI50,SF-539,> 100 µM (inactive)
same,GI50,OVCAR-8,> 100 µM (inactive)
same,GI50,MDA-MB-231,> 10 µM (inactive)
same,GI50,SNB-19,> 100 µM (inactive)
same,GI50,DU-145,> 100 µM (inactive)
same,GI50,OVCAR-3,> 100 µM (inactive)
same,GI50,EKVX,> 100 µM (inactive)
same,GI50,SN12C,> 100 µM (inactive)
same,GI50,A498,> 100 µM (inactive)
same,GI50,SF-268,61.2 µM (inactive)
same,GI50,BT-549,> 100 µM (inactive)
same,GI50,UACC-62,> 100 µM (inactive)
same,GI50,HT-29,> 100 µM (inactive)
same,GI50,HCT-116,> 100 µM (inactive)
same,GI50,OVCAR-4,> 100 µM (inactive)
same,GI50,SK-OV-3,> 100 µM (inactive)
same,GI50,CCRF-CEM,> 100 µM (inactive)
same,GI50,Hs-578T,> 100 µM (inactive)
same,GI50,SR,> 100 µM (inactive)
same,GI50,K562,> 100 µM (inactive)
same,GI50,IGROV-1,> 100 µM (inactive)
same,GI50,NCI-H522,> 100 µM (inactive)
same,GI50,MDA-N,> 100 µM (inactive)
same,GI50,Malme-3M,> 100 µM (inactive)
same,GI50,T47D,> 100 µM (inactive)
same,GI50,UO-31,> 100 µM (inactive)
same,GI50,SK-MEL-2,> 100 µM (inactive)
same,GI50,CAKI-1,> 100 µM (inactive)
same,GI50,MOLT-4,> 100 µM (inactive)
same,GI50,OVCAR-5,> 100 µM (inactive)
same,GI50,HCT-15,> 100 µM
same,GI50,HCC 2998,> 100 µM (inactive)
same,GI50,TK-10,> 100 µM (inactive)
same,GI50,ACHN,> 100 µM (inactive)
same,GI50,U-251,> 100 µM (inactive)
same,GI50,SK-MEL-28,> 100 µM (inactive)
same,GI50,M14,> 100 µM (inactive)
same,GI50,SW-620,> 100 µM (inactive)
same,GI50,KM12,> 100 µM (inactive)
O=c1oc2ccc(-n3c(=O)c4ccccc4c4ccccc4c3=O)cc2c2ccccc12,GI50,LOX IMVI,> 100 µM (inactive)
same,GI50,NCI-H226,> 100 µM (inactive)
same,GI50,SF-295,> 100 µM (inactive)
same,GI50,MCF7,> 100 µM (inactive)
same,GI50,HOP-62,> 100 µM (inactive)
same,GI50,PC-3,> 100 µM (inactive)
same,GI50,HOP-92,36.5 µM (inactive)
same,GI50,A549,> 100 µM (inactive)
same,GI50,COLO 205,> 100 µM (inactive)
same,GI50,NCI-H23,> 100 µM (inactive)
same,GI50,MDA-MB-435,> 100 µM (inactive)
same,GI50,UACC-257,> 100 µM (inactive)
same,GI50,RPMI-8226,> 100 µM (inactive)
same,GI50,HL-60,> 100 µM (inactive)
same,GI50,SNB-75,27 µM (inactive)
same,GI50,SK-MEL-5,> 100 µM (inactive)
same,GI50,NCI-H460,> 100 µM (inactive)
same,GI50,SF-539,> 100 µM (inactive)
same,GI50,786-0,66.2 µM (inactive)
same,GI50,OVCAR-8,> 100 µM (inactive)
same,GI50,MDA-MB-231,> 100 µM (inactive)
same,GI50,SNB-19,37.7 µM (inactive)
same,GI50,OVCAR-3,> 100 µM (inactive)
same,GI50,EKVX,> 100 µM (inactive)
same,GI50,SN12C,> 100 µM (inactive)
same,GI50,A498,> 100 µM (inactive)
same,GI50,SF-268,50 µM (inactive)
same,GI50,BT-549,57.1 µM (inactive)
same,GI50,UACC-62,64.6 µM (inactive)
same,GI50,HT-29,> 100 µM (inactive)
same,GI50,HCT-116,> 100 µM (inactive)
same,GI50,OVCAR-4,> 100 µM (inactive)
same,GI50,SK-OV-3,> 100 µM (inactive)
same,GI50,CCRF-CEM,> 100 µM (inactive)
same,GI50,Hs-578T,27 µM (inactive)
same,GI50,NCI/ADR-RES,> 100 µM (inactive)
same,GI50,K562,> 100 µM (inactive)
same,GI50,IGROV-1,> 100 µM (inactive)
same,GI50,NCI-H522,> 100 µM (inactive)
same,GI50,MDA-N,> 100 µM (inactive)
same,GI50,Malme-3M,> 100 µM (inactive)
same,GI50,T47D,> 100 µM (inactive)
same,GI50,UO-31,> 100 µM (inactive)
same,GI50,SK-MEL-2,28.3 µM (inactive)
same,GI50,CAKI-1,> 100 µM (inactive)
same,GI50,MOLT-4,> 100 µM (inactive)
same,GI50,OVCAR-5,> 100 µM (inactive)
same,GI50,HCT-15,> 100 µM
same,GI50,HCC 2998,> 100 µM (inactive)
same,GI50,TK-10,> 100 µM (inactive)
same,GI50,ACHN,> 100 µM (inactive)
same,GI50,RXF 393,85.1 µM (inactive)
same,GI50,U-251,20.8 µM (inactive)
same,GI50,SK-MEL-28,> 100 µM (inactive)
same,GI50,M14,> 100 µM (inactive)
same,GI50,SW-620,> 100 µM (inactive)
same,GI50,KM12,> 100 µM (inactive)
O=C1c2c(O)cc(O)cc2OC(c2ccc(O)cc2O)C1O (stereo not given),GI50,SF-295,> 100 µM (inactive)
same,GI50,MCF7,> 100 µM (inactive)
same,GI50,PC-3,> 100 µM (inactive)
same,GI50,A549,> 100 µM (inactive)
same,GI50,NCI-H23,> 100 µM (inactive)
same,GI50,MDA-MB-435,> 100 µM (inactive)
same,GI50,NCI-H460,> 100 µM (inactive)
same,GI50,MDA-MB-231,> 100 µM (inactive)
same,GI50,DU-145,> 100 µM (inactive)
same,GI50,EKVX,> 100 µM (inactive)
same,GI50,BT-549,> 100 µM (inactive)
same,GI50,Hs-578T,> 100 µM (inactive)
same,GI50,MDA-N,> 100 µM (inactive)
same,GI50,T47D,> 100 µM (inactive)
same,GI50,CAKI-1,> 100 µM (inactive)
same,GI50,TK-10,> 100 µM (inactive)
same,GI50,RXF 393,> 100 µM (inactive)
same,GI50,M14,> 100 µM (inactive)
same,GI50,KM12,> 100 µM (inactive)
